Numbers after ± are expanded uncertainties.
Legend:
[1] = Crystal
[2] = Molar enthalpy of transition or fusion; settings: Crystal
[3] = molar heat capacity at constant pressure; settings: 101.33 kPa

O=Cc1ccc([N+](=O)[O-])cc1[N+](=O)[O-] [2,4-dinitrobenzaldehyde]
Settings	Molar enthalpy of transition or fusion [kcal/mol]	Triple point temperature [K]
[1]	–	344.91 ± 0.64
[2]	5.06 ± 0.0669	–

[3]
Settings	molar heat capacity at constant pressure [J/K/mol]
78.06 K, Crystal	18.67 ± 0.96
80 K, Crystal	19.77 ± 0.99
80.91 K, Crystal	20.32 ± 1
82.54 K, Crystal	21.07 ± 1
85.26 K, Crystal	22.24 ± 1
87.46 K, Crystal	22.9 ± 1.1
89.5 K, Crystal	23.64 ± 1.1
91.38 K, Crystal	24.46 ± 2.8
93.21 K, Crystal	24.83 ± 2.8
94.98 K, Crystal	25.29 ± 2.8
96.7 K, Crystal	25.84 ± 2.8
98.42 K, Crystal	26.88 ± 2.8
100.08 K, Crystal	26.98 ± 2.8
101.76 K, Crystal	28.11 ± 2.8
103.39 K, Crystal	28.44 ± 2.8
105 K, Crystal	28.62 ± 2.8
106.58 K, Crystal	28.9 ± 2.8
108.14 K, Crystal	29.07 ± 2.8
109.68 K, Crystal	30.37 ± 2.9
111.2 K, Crystal	30.49 ± 2.9
112.69 K, Crystal	30.46 ± 2.9
114.18 K, Crystal	31.08 ± 2.9
115.64 K, Crystal	31.43 ± 2.9
117.09 K, Crystal	32.01 ± 2.9
118.49 K, Crystal	32.5 ± 2.9
119.86 K, Crystal	32.88 ± 2.9
121.24 K, Crystal	33.37 ± 2.9
122.59 K, Crystal	33.47 ± 2.9
123.93 K, Crystal	34.53 ± 2.9
125.27 K, Crystal	34.53 ± 2.9
126.61 K, Crystal	35.11 ± 2.9
127.96 K, Crystal	35.79 ± 2.9
129.3 K, Crystal	36.37 ± 2.9
130.69 K, Crystal	36.18 ± 2.9
132.09 K, Crystal	36.27 ± 2.9
133.43 K, Crystal	37.34 ± 2.9
134.81 K, Crystal	37.63 ± 2.9
136.17 K, Crystal	37.14 ± 2.9
137.59 K, Crystal	37.92 ± 2.9
138.97 K, Crystal	37.37 ± 2.9
140.34 K, Crystal	37.47 ± 2.9
141.69 K, Crystal	37.08 ± 2.9
143.04 K, Crystal	37.04 ± 2.9
144.37 K, Crystal	37.54 ± 2.9
145.68 K, Crystal	37.82 ± 2.9
146.97 K, Crystal	37.82 ± 2.9
148.25 K, Crystal	38.92 ± 3
149.52 K, Crystal	39.16 ± 3
150.78 K, Crystal	38.26 ± 3
152.03 K, Crystal	39.82 ± 3
153.25 K, Crystal	40.53 ± 3
154.49 K, Crystal	40.73 ± 3
155.72 K, Crystal	40.92 ± 3
156.96 K, Crystal	41.6 ± 3
158.19 K, Crystal	41.6 ± 3
159.41 K, Crystal	42.39 ± 3
160.67 K, Crystal	43.2 ± 3
161.9 K, Crystal	43.2 ± 3
163.15 K, Crystal	43.8 ± 3
164.37 K, Crystal	44.11 ± 3
165.6 K, Crystal	44.7 ± 3
166.79 K, Crystal	45.28 ± 3
167.97 K, Crystal	45.57 ± 3
169.2 K, Crystal	45.95 ± 3
171.64 K, Crystal	46.17 ± 3.1
175.32 K, Crystal	46.7 ± 3.1
178.53 K, Crystal	47.5 ± 3.1
181.57 K, Crystal	47.76 ± 3.1
184.51 K, Crystal	49.49 ± 3.1
187.41 K, Crystal	49.49 ± 3.1
190.27 K, Crystal	51.22 ± 3.1
193.04 K, Crystal	52.12 ± 3.1
195.57 K, Crystal	52.73 ± 3.1
198.42 K, Crystal	54.38 ± 3.2
201.09 K, Crystal	55.42 ± 3.2
202.7 K, Crystal	55.05 ± 3.2
206.17 K, Crystal	56.4 ± 3.2
208.82 K, Crystal	57.15 ± 3.2
211.47 K, Crystal	56.9 ± 3.2
214.01 K, Crystal	58.62 ± 3.2
216.52 K, Crystal	60.85 ± 3.2
219.02 K, Crystal	60.11 ± 3.2
221.6 K, Crystal	60.6 ± 3.2
224.29 K, Crystal	61.84 ± 3.2
226.79 K, Crystal	62.82 ± 3.3
229.3 K, Crystal	62.82 ± 3.3
231.81 K, Crystal	64.06 ± 3.3
234.37 K, Crystal	65.17 ± 3.3
236.8 K, Crystal	66.36 ± 3.3
239.16 K, Crystal	67.38 ± 3.3
241.63 K, Crystal	68.9 ± 3.3
243.96 K, Crystal	70.6 ± 3.4
246.15 K, Crystal	72.46 ± 3.4
248.51 K, Crystal	72.63 ± 3.4
250.87 K, Crystal	73.64 ± 3.4
253.13 K, Crystal	75.85 ± 3.4
255.45 K, Crystal	78.05 ± 3.4
257.75 K, Crystal	79.41 ± 3.5
260 K, Crystal	80.42 ± 3.5
262.29 K, Crystal	81.1 ± 3.5
265.37 K, Crystal	83.47 ± 3.5
266.84 K, Crystal	84.66 ± 3.5
269.06 K, Crystal	86.52 ± 3.6
271.28 K, Crystal	88.55 ± 3.6
273.5 K, Crystal	90.93 ± 3.6
275.72 K, Crystal	93.3 ± 3.6
277.9 K, Crystal	94.99 ± 3.7
280.12 K, Crystal	96.35 ± 3.7
282.24 K, Crystal	98.88 ± 3.7
284.45 K, Crystal	100.75 ± 3.7
286.53 K, Crystal	101.94 ± 3.7
288.75 K, Crystal	103.12 ± 3.8
290.86 K, Crystal	105.15 ± 3.8
293.05 K, Crystal	105.66 ± 3.8
295.09 K, Crystal	108.2 ± 3.8
297.17 K, Crystal	110.92 ± 3.8
299.24 K, Crystal	112.78 ± 3.9
301.25 K, Crystal	116 ± 3.9
303.25 K, Crystal	118.56 ± 3.9
305.33 K, Crystal	120.3 ± 4
307.3 K, Crystal	122.62 ± 4
309.27 K, Crystal	124.17 ± 4
311.25 K, Crystal	125.72 ± 4
313.22 K, Crystal	128.04 ± 4.1
315.24 K, Crystal	130.3 ± 4.1
317.17 K, Crystal	132.69 ± 4.1
319.12 K, Crystal	135.33 ± 4.2
321.07 K, Crystal	136.59 ± 4.2
322.98 K, Crystal	138.88 ± 4.2
324.91 K, Crystal	141.63 ± 4.2
326.82 K, Crystal	144.41 ± 4.3
328.67 K, Crystal	147.92 ± 4.3
330.55 K, Crystal	151.7 ± 4.4
332.43 K, Crystal	154.77 ± 4.4
334.19 K, Crystal	158.54 ± 4.4
335.92 K, Crystal	161.76 ± 4.5
337.65 K, Crystal	165.54 ± 4.5
339.38 K, Crystal	169.32 ± 4.6
341.03 K, Crystal	173.09 ± 4.6
348.1 K, Liquid	300.29 ± 6.2
349.69 K, Liquid	307.08 ± 6.3
351.29 K, Liquid	313.48 ± 6.4
352.84 K, Liquid	317.48 ± 6.4
354.37 K, Liquid	327.47 ± 6.5
355.87 K, Liquid	334.28 ± 6.6
357.34 K, Liquid	342.27 ± 6.7
358.75 K, Liquid	344.27 ± 6.7
360.22 K, Liquid	349.07 ± 6.8
361.51 K, Liquid	354.26 ± 6.9
362.75 K, Liquid	357.86 ± 6.9
363.93 K, Liquid	367.87 ± 7
365.07 K, Liquid	373.86 ± 7.1
366.13 K, Liquid	381.06 ± 7.2
367.12 K, Liquid	389.86 ± 7.3

— the NIST ThermoML archive (doi:10.1016/j.jct.2004.09.018)
